Literature values as cited in patent US6387904B2, “Method of treating glaucoma and ischemic retinopathy” (Pfizer INC, priority 1998, dated 2002).
Structures can show the parent of a compound that is named as a salt.

Assays:
5-HT1A = target: T1, 5-HT1A (Homo sapiens, UniProt P08908); settings: ligand [3H]-80H-DPAT; central nervous system tissue; mean ± spread (n)
T1 construct: host or cells: central nervous system tissue
T1 sequence (P08908 1-422): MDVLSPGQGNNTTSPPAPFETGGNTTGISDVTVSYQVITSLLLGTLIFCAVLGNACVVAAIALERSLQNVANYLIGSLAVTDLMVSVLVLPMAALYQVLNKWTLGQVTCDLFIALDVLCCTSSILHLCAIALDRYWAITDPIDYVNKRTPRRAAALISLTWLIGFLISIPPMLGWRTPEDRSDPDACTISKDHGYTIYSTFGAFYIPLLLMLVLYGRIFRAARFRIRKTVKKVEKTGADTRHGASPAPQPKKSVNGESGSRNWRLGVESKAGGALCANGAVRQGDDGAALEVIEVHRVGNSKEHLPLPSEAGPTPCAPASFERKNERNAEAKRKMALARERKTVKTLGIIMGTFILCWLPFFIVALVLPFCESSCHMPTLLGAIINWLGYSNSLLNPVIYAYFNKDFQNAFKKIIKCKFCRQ

Norpinephrine reuptake = Norpinephrine reuptake (Homo sapiens, UniProt P23975); settings: neurotransmitter uptake inhibition; mean ± spread (n)
Chain of Norpinephrine reuptake (P23975 whole entry): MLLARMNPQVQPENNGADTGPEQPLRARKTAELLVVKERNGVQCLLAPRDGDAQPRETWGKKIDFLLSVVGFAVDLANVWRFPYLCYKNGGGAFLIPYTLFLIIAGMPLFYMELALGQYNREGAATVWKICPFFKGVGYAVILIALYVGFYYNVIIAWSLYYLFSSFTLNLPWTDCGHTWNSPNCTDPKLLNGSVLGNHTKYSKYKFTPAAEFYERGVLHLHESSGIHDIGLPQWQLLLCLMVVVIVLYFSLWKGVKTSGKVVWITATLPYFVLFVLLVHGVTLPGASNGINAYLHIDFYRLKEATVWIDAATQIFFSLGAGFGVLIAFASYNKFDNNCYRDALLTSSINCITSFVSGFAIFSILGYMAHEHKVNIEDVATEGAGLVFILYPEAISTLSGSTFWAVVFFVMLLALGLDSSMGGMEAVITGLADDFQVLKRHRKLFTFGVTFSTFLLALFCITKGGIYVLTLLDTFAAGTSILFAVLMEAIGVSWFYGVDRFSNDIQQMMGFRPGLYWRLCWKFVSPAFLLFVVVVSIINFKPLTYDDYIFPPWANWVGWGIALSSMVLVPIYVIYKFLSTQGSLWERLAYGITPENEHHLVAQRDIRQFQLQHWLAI

DA reuptake = target: T2, DA reuptake (Homo sapiens, UniProt Q01959); settings: neurotransmitter uptake inhibition; mean ± spread (n)
T2 construct: host or cells: central nervous system tissue
T2 sequence (Q01959 whole entry): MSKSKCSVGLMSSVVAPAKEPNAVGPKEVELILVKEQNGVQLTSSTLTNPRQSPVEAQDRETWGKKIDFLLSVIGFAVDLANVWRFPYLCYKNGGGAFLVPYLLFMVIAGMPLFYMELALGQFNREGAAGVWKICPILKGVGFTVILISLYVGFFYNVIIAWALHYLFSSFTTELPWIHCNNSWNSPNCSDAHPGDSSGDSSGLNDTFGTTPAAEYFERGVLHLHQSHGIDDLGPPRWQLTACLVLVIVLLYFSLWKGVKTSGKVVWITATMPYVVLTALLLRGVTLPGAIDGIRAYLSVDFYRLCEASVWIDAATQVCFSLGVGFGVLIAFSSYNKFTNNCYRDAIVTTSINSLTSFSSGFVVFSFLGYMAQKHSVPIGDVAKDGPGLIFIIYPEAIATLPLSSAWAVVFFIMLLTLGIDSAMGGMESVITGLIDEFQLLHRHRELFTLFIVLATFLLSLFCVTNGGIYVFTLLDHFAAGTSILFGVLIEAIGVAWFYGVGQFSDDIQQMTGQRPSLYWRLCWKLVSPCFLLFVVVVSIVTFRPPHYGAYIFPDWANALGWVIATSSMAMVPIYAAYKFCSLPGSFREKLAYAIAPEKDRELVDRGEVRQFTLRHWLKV

In the case of O=C1Cc2cc(CCN3CCN(c4nsc5ccccc45)CC3)c(Cl)cc2N1 [ziprasidone, 5-(2-(4-(1,2-benzisothiazol-3-yl)piperazinyl)ethyl)-6-chlorooxindole hydrochloride], the “pKi 5-HT1A” value (5-HT1A) is given as 8.47 ± 0.05 (4), the “pKi Neurotransmiter Reuptake Blockade: Norpinephrine” value (Norpinephrine reuptake) is given as 7.30 ± 0.01 (4) and the “pKi Neurotransmiter Reuptake Blockade: DA” value (DA reuptake) is given as 6.58 ± 0.02 (3).
